This passage reports Kd results from patent US11904020B2, “Bicyclic peptide ligands specific for TREM2” (Bicycle Tx Limited, priority 2021, dated 2024).

*1 amine or outer side, *2 acyl side, *3 side chain or, on linkers, in order; H or OH if unused. Where a SMILES comes first, the peptide text is derived from it. Bridges are numbered along the chain shown (N, C = ends). [ ]: non-standard residue; d: D form. TATA = O=C(CC[*:1])N1CN(C(=O)CC[*:2])CN(C(=O)CC[*:3])C1; Bip = N[C@@H](Cc1ccc(-c2ccccc2)cc1)C(=O)O; 1Nal = N[C@@H](Cc1cccc2ccccc12)C(=O)O; Phe(2-Me) = Cc1ccccc1C[C@H](N)C(=O)O; tBuAla = CC(C)(C)C[C@H](N)C(=O)O; 4Pal = N[C@@H](Cc1ccncc1)C(=O)O
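Also: Bio-layer interferometry in 50 mM HEPES pH 7.5 with 150 mM NaCl and 0.1% Tween, double-referenced with blank wells and unrelated-protein sensors, equilibrium response fitted versus concentration.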

The target of one assay is TREM2 extracellular domain (ECD) (residues 19-131, C-terminally biotinylated, deglycosylated or glycosylated) (Homo sapiens, UniProt Q9NZC2). As to the kind of experiment: biochemical. The settings on record: Human BLI (Kd; nM) (deglycosylated), Table 4A; deglycosylated human TREM2 ECD; steady-state KD, 25° C.
Chain of TREM2 extracellular domain (ECD) (residues 19-131, C-terminally biotinylated, deglycosylated or glycosylated) (Q9NZC2 19-131): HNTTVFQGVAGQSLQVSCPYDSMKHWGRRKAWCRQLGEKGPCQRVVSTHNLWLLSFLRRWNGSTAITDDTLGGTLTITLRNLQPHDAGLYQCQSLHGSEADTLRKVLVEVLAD
Procedure: Bio-layer interferometry was performed on an Octet RED384® system (Sartorius) at 25° C. in a buffer containing 50 mM HEPES (pH 7.5), 150 mM NaCl and 0.1% Tween. TREM2 extracellular domain (ECD) (residues 19-131, C-terminally biotinylated, deglycosylated or glycosylated) was loaded onto Superstreptavidin biosensors (SSA, 18-5070, Sartorius) at 0.0125 mg/ml for 300 s. Bicycle peptides (10 mM in DMSO) were dispensed into 384-Well Tilted-Bottom Plates (18-5076, Sartorius) using an Echo liquid handler giving a final DMSO concentration of 0.125% in all wells including control wells. Association of defined concentrations of bicyclic peptide (0-12.5 μM, 1:2 dilutions for 7 points) was recorded over 120 s followed by dissociation in buffer over 120 s. Reference wells containing no bicycle peptides and reference sensors loaded with an unrelated protein (His-tagged MLLT3a) were subjected to the same assay protocol and double reference subtraction was used for processing to account for non-specific binding. Traces were analysed using Octet Software (Version 11.0). Association and dissociation curves were globally fit and the response at equilibrium (Req) plotted against concentration to obtain steady-state KD values.
The compound `CC(C)C[C@@H]1NC(=O)[C@H](Cc2ccccc2)NC(=O)[C@H](Cc2ccccc2)NC(=O)[C@@H]2CCCN2C(=O)[C@H](Cc2c[nH]c3ccccc23)NC(=O)[C@H](Cc2ccccc2)NC(=O)[C@@H]2CSCCC(=O)N3CN(CN(C3)C(=O)CCSC[C@@H](C(=O)N[C@@H](C)C(N)=O)NC1=O)C(=O)CCSC[C@H](NC(=O)[C@H](C)N)C(=O)N[C@@H](CO)C(=O)N[C@@H](CCC(=O)O)C(=O)N[C@@H](Cc1ccc(O)cc1)C(=O)N2` [BCY19776, A-(SEQ ID NO: 15)-A] (H-ACSEYCFWPFFLCA-NH2; linker 2-6-13 via TATA) yielded a Kd of 750 nM. `C[C@H](N)C(=O)N[C@H]1CSCCC(=O)N2CN3CN(C2)C(=O)CCSC[C@H](NC(=O)[C@H](Cc2ccc(O)cc2)NC(=O)[C@H](CC(N)=O)NC(=O)[C@H]([C@@H](C)O)NC1=O)C(=O)N[C@@H](Cc1ccccc1)C(=O)N[C@@H](Cc1c[nH]c2ccccc12)C(=O)N1CCC[C@H]1C(=O)N[C@@H](Cc1ccccc1)C(=O)N[C@@H](CCC(N)=O)C(=O)N[C@@H](CO)C(=O)N[C@H](C(=O)N[C@@H](C)C(N)=O)CSCCC3=O` [BCY19780, A-(SEQ ID NO: 19)-A] (H-ACTNYCFWPFQSCA-NH2; linker 2-6-13 via TATA) registered a Kd of 2400 nM. As to `C[C@H](N)C(=O)N[C@H]1CSCCC(=O)N2CN3CN(C2)C(=O)CCSC[C@H](NC(=O)[C@H](Cc2ccc(O)cc2)NC(=O)[C@H](CC(N)=O)NC(=O)[C@H]([C@@H](C)O)NC1=O)C(=O)N[C@@H](Cc1ccccc1)C(=O)N[C@@H](Cc1c[nH]c2ccccc12)C(=O)N1CCC[C@H]1C(=O)N[C@@H](Cc1ccccc1)C(=O)N[C@@H](Cc1ccc(O)cc1)C(=O)N[C@@H](CO)C(=O)N[C@H](C(=O)N[C@@H](C)C(N)=O)CSCCC3=O` [BCY19781, A-(SEQ ID NO: 20)-A] (H-ACTNYCFWPFYSCA-NH2; linker 2-6-13 via TATA), the Kd was 1400 nM.

On to `CC(C)[C@@H]1NC(=O)[C@H](C)NC(=O)[C@H](Cc2ccccc2)NC(=O)[C@@H]2CCCN2C(=O)[C@H](Cc2c[nH]c3ccccc23)NC(=O)[C@H](Cc2ccccc2)NC(=O)[C@@H]2CSCCC(=O)N3CN(CN(C3)C(=O)CCSC[C@@H](C(=O)N[C@@H](C)C(N)=O)NC1=O)C(=O)CCSC[C@H](NC(=O)[C@H](C)N)C(=O)N[C@@H]([C@@H](C)O)C(=O)N[C@@H](CC(N)=O)C(=O)N[C@@H](Cc1ccc(O)cc1)C(=O)N2` [BCY19783, A-(SEQ ID NO: 22)-A] (H-ACTNYCFWPFAVCA-NH2; linker 2-6-13 via TATA), for which the Kd came to 2700 nM.

Still in this assay, the particulars now being: Human BLI (Kd; nM) (deglycosylated), Table 4B; deglycosylated human TREM2 ECD; steady-state KD, 25° C.
`CC(=O)N[C@H]1CSCCC(=O)N2CN3CN(C2)C(=O)CCSC[C@H](NC(=O)[C@H](Cc2ccc(O)cc2)NC(=O)[C@H](CCC(=O)O)NC(=O)[C@H](CO)NC1=O)C(=O)N[C@@H](Cc1ccccc1F)C(=O)N[C@@H](Cc1c[nH]c2ccccc12)C(=O)N1CCC[C@H]1C(=O)N[C@@H](Cc1ccccc1)C(=O)N[C@@H](Cc1ccc(O)cc1)C(=O)N[C@@H](Cc1c[nH]cn1)C(=O)N[C@H](C(N)=O)CSCCC3=O` [BCY20051, Ac-(SEQ ID NO: 51)] displayed a Kd of 2030 nM. Regarding `CC(=O)N[C@H]1CSCCC(=O)N2CN3CN(C2)C(=O)CCSC[C@H](NC(=O)[C@H](Cc2ccc(O)cc2)NC(=O)[C@H](CCC(=O)O)NC(=O)[C@H](CO)NC1=O)C(=O)N[C@@H](Cc1cccc2ccccc12)C(=O)N[C@@H](Cc1c[nH]c2ccccc12)C(=O)N1CCC[C@H]1C(=O)N[C@@H](Cc1ccccc1)C(=O)N[C@@H](Cc1ccc(O)cc1)C(=O)N[C@@H](Cc1c[nH]cn1)C(=O)N[C@H](C(N)=O)CSCCC3=O` [BCY20054, Ac-(SEQ ID NO: 49)] (Ac-CSEYC[1Nal]WPFYHC-NH2; linker 1-5-12 via TATA), the affinity, expressed as Kd, was 2540 nM. The Kd values of the last two compounds are within 1.5-fold of each other. `CC(=O)N[C@H]1CSCCC(=O)N2CN3CN(C2)C(=O)CCSC[C@H](NC(=O)[C@H](Cc2ccc(O)cc2)NC(=O)[C@H](CCC(=O)O)NC(=O)[C@H](CO)NC1=O)C(=O)N[C@@H](Cc1ccccc1)C(=O)N[C@@H](Cc1ccccc1C)C(=O)N1CCC[C@H]1C(=O)N[C@@H](Cc1ccccc1)C(=O)N[C@@H](Cc1ccc(O)cc1)C(=O)N[C@@H](Cc1c[nH]cn1)C(=O)N[C@H](C(N)=O)CSCCC3=O` [BCY20063, Ac-(SEQ ID NO: 61)] (Ac-CSEYCF[Phe(2-Me)]PFYHC-NH2; linker 1-5-12 via TATA) yielded a Kd of 1300 nM.

As for `CC(=O)N[C@H]1CSCCC(=O)N2CN3CN(C2)C(=O)CCSC[C@H](NC(=O)[C@H](Cc2ccc(O)cc2)NC(=O)[C@H](CCC(=O)O)NC(=O)[C@H](CO)NC1=O)C(=O)N[C@@H](Cc1ccccc1)C(=O)N[C@@H](Cc1c[nH]c2ccccc12)C(=O)N1CC[C@H]1C(=O)N[C@@H](Cc1ccccc1)C(=O)N[C@@H](Cc1ccc(O)cc1)C(=O)N[C@@H](Cc1c[nH]cn1)C(=O)N[C@H](C(N)=O)CSCCC3=O` [BCY20068, Ac-(SEQ ID NO: 64)], binding was put at a Kd of 2540 nM.

`CC(=O)N[C@H]1CSCCC(=O)N2CN3CN(C2)C(=O)CCSC[C@H](NC(=O)[C@H](Cc2ccc(O)cc2)NC(=O)[C@H](CCC(=O)O)NC(=O)[C@H](CO)NC1=O)C(=O)N[C@@H](Cc1ccccc1)C(=O)N[C@@H](Cc1c[nH]c2ccccc12)C(=O)N1CCCC[C@H]1C(=O)N[C@@H](Cc1ccccc1)C(=O)N[C@@H](Cc1ccc(O)cc1)C(=O)N[C@@H](Cc1c[nH]cn1)C(=O)N[C@H](C(N)=O)CSCCC3=O` [BCY20069, Ac-(SEQ ID NO: 62)] returned a Kd of 1460 nM. The compound `CC(=O)N[C@H]1CSCCC(=O)N2CN3CN(C2)C(=O)CCSC[C@H](NC(=O)[C@H](Cc2ccc(O)cc2)NC(=O)[C@H](CCC(=O)O)NC(=O)[C@H](CO)NC1=O)C(=O)N[C@@H](Cc1ccccc1)C(=O)N[C@@H](Cc1c[nH]c2ccccc12)C(=O)N1CCC[C@H]1C(=O)N[C@@H](Cc1ccc(-c2ccccc2)cc1)C(=O)N[C@@H](Cc1ccc(O)cc1)C(=O)N[C@@H](Cc1c[nH]cn1)C(=O)N[C@H](C(N)=O)CSCCC3=O` [BCY20075, Ac-(SEQ ID NO: 71)] (Ac-CSEYCFWP[Bip]YHC-NH2; linker 1-5-12 via TATA) gave a Kd of 2400 nM. The same measure, in the same setting: the value for `CC(=O)N[C@H]1CSCCC(=O)N2CN3CN(C2)C(=O)CCSC[C@H](NC(=O)[C@H](Cc2ccc(O)cc2)NC(=O)[C@H](CCC(=O)O)NC(=O)[C@H](CO)NC1=O)C(=O)N[C@@H](Cc1ccccc1)C(=O)N[C@@H](Cc1c[nH]c2ccccc12)C(=O)N1CCC[C@H]1C(=O)N[C@@H](Cc1ccccc1)C(=O)N[C@@H](Cc1ccc(O)cc1)C(=O)N[C@@H](CC(N)=O)C(=O)N[C@H](C(N)=O)CSCCC3=O` [BCY20083, Ac-(SEQ ID NO: 78)] (Ac-CSEYCFWPFYNC-NH2; linker 1-5-12 via TATA) was 1830 nM; that for `CC(=O)N[C@H]1CSCCC(=O)N2CN3CN(C2)C(=O)CCSC[C@H](NC(=O)[C@H](Cc2ccc(O)cc2)NC(=O)[C@H](CCC(=O)O)NC(=O)[C@@H](C)NC1=O)C(=O)N[C@@H](Cc1ccccc1)C(=O)N[C@@H](Cc1c[nH]c2ccccc12)C(=O)N1CCC[C@H]1C(=O)N[C@@H](Cc1ccccc1)C(=O)N[C@@H](Cc1ccc(O)cc1)C(=O)N[C@@H](Cc1c[nH]cn1)C(=O)N[C@H](C(N)=O)CSCCC3=O` [BCY20086, Ac-(SEQ ID NO: 79)] was 17900 nM. Compound `CC(=O)N[C@H]1CSCCC(=O)N2CN3CN(C2)C(=O)CCSC[C@H](NC(=O)[C@H](Cc2ccc(O)cc2)NC(=O)[C@@H](C)NC(=O)[C@H](CO)NC1=O)C(=O)N[C@@H](Cc1ccccc1)C(=O)N[C@@H](Cc1c[nH]c2ccccc12)C(=O)N1CCC[C@H]1C(=O)N[C@@H](Cc1ccccc1)C(=O)N[C@@H](Cc1ccc(O)cc1)C(=O)N[C@@H](Cc1c[nH]cn1)C(=O)N[C@H](C(N)=O)CSCCC3=O` [BCY20087, Ac-(SEQ ID NO: 80)] had a Kd of 18000 nM.

`CC(=O)N[C@H]1CSCCC(=O)N2CN3CN(C2)C(=O)CCSC[C@H](NC(=O)[C@H](Cc2ccc(O)cc2)NC(=O)[C@H](CCC(=O)O)NC(=O)[C@H](CO)NC1=O)C(=O)N[C@@H](Cc1ccccc1)C(=O)N[C@@H](Cc1c[nH]c2ccccc12)C(=O)N1CCC[C@H]1C(=O)N[C@@H](Cc1ccccc1)C(=O)N[C@@H](CCC(N)=O)C(=O)N[C@@H](Cc1ccc(O)cc1)C(=O)N[C@H](C(N)=O)CSCCC3=O` [BCY20220, Ac-(SEQ ID NO: 23)] (Ac-CSEYCFWPFQYC-NH2; linker 1-5-12 via TATA): the Kd amounted to 1300 nM. In the case of `CC(=O)N[C@H]1CSCCC(=O)N2CN3CN(C2)C(=O)CCSC[C@H](NC(=O)[C@H](Cc2ccc(O)cc2)NC(=O)[C@H](CCC(=O)O)NC(=O)[C@H](CO)NC1=O)C(=O)N[C@@H](Cc1ccccc1)C(=O)N[C@@H](Cc1c[nH]c2ccccc12)C(=O)N1CCC[C@H]1C(=O)N[C@@H](Cc1ccncc1)C(=O)N[C@@H](Cc1ccc(O)cc1)C(=O)N[C@@H](Cc1c[nH]cn1)C(=O)N[C@H](C(N)=O)CSCCC3=O` [BCY20569, Ac-(SEQ ID NO: 95)] (Ac-CSEYCFWP[4Pal]YHC-NH2; linker 1-5-12 via TATA), the Kd worked out at 3800 nM.

The same assay, now with this note: Human BLI (Kd; nM) glycosylated, Table 4B; glycosylated human TREM2 ECD.
`CC(=O)N[C@H]1CSCCC(=O)N2CN3CN(C2)C(=O)CCSC[C@H](NC(=O)[C@H](Cc2ccc(O)cc2)NC(=O)[C@H](CCC(=O)O)NC(=O)[C@H](CO)NC1=O)C(=O)N[C@@H](Cc1cccc2ccccc12)C(=O)N[C@@H](Cc1c[nH]c2ccccc12)C(=O)N1CCC[C@H]1C(=O)N[C@@H](Cc1ccccc1)C(=O)N[C@@H](Cc1ccc(O)cc1)C(=O)N[C@@H](Cc1c[nH]cn1)C(=O)N[C@H](C(N)=O)CSCCC3=O` [BCY20054, Ac-(SEQ ID NO: 49)] (Ac-CSEYC[1Nal]WPFYHC-NH2; linker 1-5-12 via TATA) gave a Kd of 1830 nM.

On to `CC(=O)N[C@H]1CSCCC(=O)N2CN3CN(C2)C(=O)CCSC[C@H](NC(=O)[C@H](Cc2ccc(O)cc2)NC(=O)[C@H](CCC(=O)O)NC(=O)[C@H](CO)NC1=O)C(=O)N[C@@H](Cc1ccccc1)C(=O)N[C@@H](Cc1c[nH]c2ccccc12)C(=O)N1CCC[C@H]1C(=O)N[C@@H](CC(C)(C)C)C(=O)N[C@@H](Cc1ccc(O)cc1)C(=O)N[C@@H](Cc1c[nH]cn1)C(=O)N[C@H](C(N)=O)CSCCC3=O` [BCY20074, Ac-(SEQ ID NO: 68)] (Ac-CSEYCFWP[tBuAla]YHC-NH2; linker 1-5-12 via TATA), for which the Kd amounted to 920 nM.

On to `CC(=O)N[C@H]1CSCCC(=O)N2CN3CN(C2)C(=O)CCSC[C@H](NC(=O)[C@H](Cc2ccc(O)cc2)NC(=O)[C@H](CCC(=O)O)NC(=O)[C@H](CO)NC1=O)C(=O)N[C@@H](Cc1ccccc1)C(=O)N[C@@H](Cc1c[nH]c2ccccc12)C(=O)N1CCC[C@H]1C(=O)N[C@@H](Cc1ccccc1)C(=O)N[C@@H](Cc1c[nH]c2ccccc12)C(=O)N[C@@H](Cc1c[nH]cn1)C(=O)N[C@H](C(N)=O)CSCCC3=O` [BCY20077, Ac-(SEQ ID NO: 73)] (Ac-CSEYCFWPFWHC-NH2; linker 1-5-12 via TATA), for which the affinity, expressed as Kd, was 750 nM.

For orientation: Kd means the concentration at which binding is half-saturated. The low end stands for tighter binding, the high end for weaker binding.
